Measurements as given in ChEMBL document CHEMBL1201862, “PubChem BioAssay data set” (2004).
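Compound exposure: 48 hours, 5 concentrations, 96-well plates. Abbreviation: GI50, concentration required for 50% inhibition of growth.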 Active and inactive are the calls of the source. Rule as the data show it: active = GI50 up to about 1.1 µM and inactive = higher.

What was measured:
Test in all cases: NCI anticancer screen, dose series, 48 h
[1] = tested on: TK-10
[2] = tested on: SF-539
[3] = tested on: MDA-MB-231
[4] = tested on: IGROV-1
[5] = tested on: OVCAR-8
[6] = tested on: HT-29
[7] = tested on: T47D
[8] = tested on: UO-31
[9] = tested on: UACC-62
[10] = tested on: CCRF-CEM
[11] = tested on: M14
[12] = tested on: U-251
[13] = tested on: MDA-N
[14] = tested on: SK-MEL-28
[15] = tested on: NCI-H522
[16] = tested on: SF-295
[17] = tested on: SK-OV-3
[18] = tested on: SR
[19] = tested on: SF-268
[20] = tested on: SNB-75

Measured: GI50

COc1cccc(CC(=O)N2CCN(CCCc3ccccc3)CC2)c1
inactive: [1] 78.7 µM | [2] > 100 µM | [3] > 100 µM | [4] > 100 µM | [5] 53 µM | [6] 31.4 µM | [7] 22.2 µM | [8] 39.1 µM | [9] > 100 µM | [10] 89.3 µM | [11] 63.8 µM | [12] > 100 µM | [13] 90.8 µM | [14] > 100 µM | [15] 57.9 µM | [16] 47.5 µM | [17] > 100 µM | [18] 42.1 µM | [19] > 100 µM

CC1=CC(C)C(C)N(CCNS(=O)(=O)c2ccc(C)cc2)c2ccccc21 (stereo not given)
inactive: [1] 30.5 µM | [2] 13.4 µM | [3] 13.8 µM | [4] 17 µM | [5] 14.6 µM | [6] 12.5 µM | [20] 15.7 µM | [7] 10.8 µM | [8] 16.5 µM | [9] 12.2 µM | [10] 13 µM | [11] 12.3 µM | [12] 16.5 µM | [13] 12.5 µM | [14] 12.9 µM | [15] 18.2 µM | [16] 13.8 µM | [17] 29.6 µM | [18] 16 µM | [19] 13 µM

Oc1cccc2ccc(SSc3ccc4cccc(O)c4n3)nc12
inactive: [1] 20.1 µM | [2] 19.8 µM | [3] 16.7 µM | [4] 24.7 µM | [5] 19.1 µM | [6] 18.7 µM | [20] 14.7 µM | [7] 13.2 µM | [8] 25.8 µM | [9] 17.4 µM | [10] 3.36 µM | [11] 16 µM | [12] 16.4 µM | [13] 17.5 µM | [14] 20.7 µM | [15] 15.8 µM | [16] 16.6 µM | [17] 16.3 µM | [18] 23.9 µM | [19] 25.3 µM

c1ccc(-c2cc3[nH]c4ccccc4[nH]c-3cc(-c3ccccc3)nn2)cc1
inactive: [1] 22.9 µM | [2] 39.6 µM | [3] 80 µM | [4] 32.1 µM | [5] 54.2 µM | [6] 50.9 µM | [20] 30.4 µM | [7] > 100 µM | [8] 21.3 µM | [9] > 100 µM | [10] 49.3 µM | [11] > 100 µM | [12] 55.6 µM | [13] > 100 µM | [14] > 100 µM | [15] 71 µM | [16] 24.4 µM | [17] 17.7 µM | [18] 96.2 µM | [19] 53 µM

Cc1cc(NS(=O)(=O)c2ccc(Nc3c4ccccc4nc4ccc(C(=O)Nc5ccc(S(=O)(=O)N=C(N)N)cc5)cc34)cc2)no1
inactive: [1] > 100 µM | [2] > 100 µM | [3] > 100 µM | [4] > 100 µM | [5] > 100 µM | [6] > 100 µM | [20] > 100 µM | [7] > 100 µM | [8] > 100 µM | [9] > 100 µM | [10] 66.1 µM | [11] > 100 µM | [12] > 100 µM | [13] > 100 µM | [14] > 100 µM | [15] > 100 µM | [16] > 100 µM | [17] > 100 µM | [18] > 100 µM | [19] > 100 µM

CC(=O)OCC1OC(NC(=S)CCSc2nc3ccccc3c(=O)n2-c2ccccc2)C(OC(C)=O)C(OC(C)=O)C1OC(C)=O (stereo not given)
inactive: [2] 1.64 µM | [3] > 100 µM | [4] 2.34 µM | [5] > 100 µM | [6] > 100 µM | [20] 22 µM | [7] 30.5 µM | [8] 42 µM | [9] 28.4 µM | [10] 27.2 µM | [11] 46.1 µM | [12] 38.1 µM | [13] 44.4 µM | [14] 59.6 µM | [15] 25.6 µM | [16] 32.5 µM | [17] 46.9 µM | [18] 34.1 µM | [19] > 100 µM

CN(C)c1nc2n(CCO)ccnc-2c(=O)n1
inactive: [1] > 100 µM | [2] > 100 µM | [3] > 100 µM | [4] > 100 µM | [5] > 100 µM | [6] > 100 µM | [20] > 100 µM | [7] > 100 µM | [8] > 100 µM | [9] > 100 µM | [10] > 100 µM | [11] > 100 µM | [12] > 100 µM | [13] > 100 µM | [14] > 100 µM | [15] > 100 µM | [16] > 100 µM | [17] > 100 µM | [18] > 100 µM | [19] > 100 µM

N#CCC(=O)N/N=C\C(O)C(O)C(O)C(O)CO (stereo not given)
inactive: [1] > 100 µM | [2] > 100 µM | [3] > 100 µM | [4] > 100 µM | [5] > 100 µM | [6] > 100 µM | [20] > 100 µM | [7] > 100 µM | [8] > 100 µM | [9] > 100 µM | [10] > 100 µM | [11] > 100 µM | [13] > 100 µM | [14] > 100 µM | [15] > 100 µM | [16] > 100 µM | [17] > 100 µM | [18] > 100 µM | [19] > 100 µM

COC1(OC)c2occc2C(=N)c2ccc(=O)oc21
inactive: [1] > 100 µM | [2] 41.9 µM | [3] > 100 µM | [4] > 100 µM | [6] > 100 µM | [7] > 100 µM | [8] > 100 µM | [9] > 100 µM | [10] 85.9 µM | [11] > 100 µM | [12] > 100 µM | [13] > 100 µM | [14] > 100 µM | [15] > 100 µM | [16] > 100 µM | [17] > 100 µM | [18] 71.8 µM | [19] > 100 µM

Cn1c([C@H](C#N)C(=O)c2cc(O)ccc2[N+](=O)[O-])nc2ccccc21
inactive: [1] > 100 µM | [2] > 100 µM | [3] > 100 µM | [4] > 100 µM | [5] > 100 µM | [6] > 100 µM | [20] > 100 µM | [7] > 100 µM | [8] > 100 µM | [9] > 100 µM | [10] 10.6 µM | [11] > 100 µM | [12] > 100 µM | [13] > 100 µM | [14] > 100 µM | [15] > 100 µM | [16] > 100 µM | [18] 5.98 µM | [19] > 100 µM

CC1=NN(C(=O)CC(=O)Nc2cccc(Cl)c2)C(=O)C1/N=N/c1ccc(C(=O)O)cc1 (stereo not given)
inactive: [1] > 100 µM | [2] > 100 µM | [3] > 100 µM | [4] > 100 µM | [5] > 100 µM | [6] > 100 µM | [20] 52.1 µM | [7] 37.2 µM | [8] 65.2 µM | [9] > 100 µM | [10] 48.4 µM | [11] > 100 µM | [12] > 100 µM | [13] > 100 µM | [14] > 100 µM | [15] > 100 µM | [16] > 100 µM | [18] 48.9 µM | [19] > 100 µM

c1csc(-c2nccc3c2[nH]c2ccccc23)c1
inactive: [1] 21.1 µM | [2] 16.4 µM | [3] 20.6 µM | [4] 18.4 µM | [5] 20.5 µM | [6] 15.1 µM | [20] 14.1 µM | [7] 11.8 µM | [9] 30.2 µM | [10] 21.2 µM | [11] 17.8 µM | [12] 25.4 µM | [13] 17.5 µM | [14] 25.6 µM | [15] 15.8 µM | [16] 16.1 µM | [17] 14.2 µM | [18] 21 µM | [19] 27 µM

Cc1ccc(-c2c3c(n(C4OC(CO)C(O)C(O)C4O)c(=S)c2C#N)CC(C)(C)CC3=O)cc1 (stereo not given)
inactive: [1] > 100 µM | [2] 39.6 µM | [3] 80.5 µM | [4] > 100 µM | [5] 71.9 µM | [6] 33.1 µM | [20] 49.1 µM | [7] 34.4 µM | [8] 60 µM | [9] 46.5 µM | [10] 68.2 µM | [11] 93.5 µM | [12] 52.4 µM | [13] 46 µM | [14] 52.2 µM | [15] > 100 µM | [16] > 100 µM | [18] 37 µM | [19] > 100 µM

CCN1C(=O)CS/C1=N\NC(=O)CSc1nc2ccccc2c(=O)n1CC
inactive: [1] > 100 µM | [2] > 100 µM | [3] > 100 µM | [4] > 100 µM | [5] > 100 µM | [20] > 100 µM | [7] > 100 µM | [8] > 100 µM | [9] > 100 µM | [10] > 100 µM | [11] > 100 µM | [12] > 100 µM | [13] > 100 µM | [14] > 100 µM | [15] > 100 µM | [16] > 100 µM | [17] > 100 µM | [18] > 100 µM | [19] > 100 µM
